Laboratory results from ChEMBL document CHEMBL1131734, “Synthesis of polyamine derivatives for the preparation of affinity chromatography columns for the search of new Trypanosoma cruzi targets” (Bioorg Med Chem Lett, 1999).

Experiments:
Trypanosoma cruzi [1] = assay: Inhibitory activity against Trypanosoma cruzi trypomastigotes; format: functional, organism-based
Trypanothione reductase = Trypanothione reductase (Trypanosoma cruzi, UniProt P28593); assay: Inhibitory activity against trypanothione reductase in Trypanosoma cruzi trypomastigotes; NA is not active
Chain of Trypanothione reductase (P28593 whole entry): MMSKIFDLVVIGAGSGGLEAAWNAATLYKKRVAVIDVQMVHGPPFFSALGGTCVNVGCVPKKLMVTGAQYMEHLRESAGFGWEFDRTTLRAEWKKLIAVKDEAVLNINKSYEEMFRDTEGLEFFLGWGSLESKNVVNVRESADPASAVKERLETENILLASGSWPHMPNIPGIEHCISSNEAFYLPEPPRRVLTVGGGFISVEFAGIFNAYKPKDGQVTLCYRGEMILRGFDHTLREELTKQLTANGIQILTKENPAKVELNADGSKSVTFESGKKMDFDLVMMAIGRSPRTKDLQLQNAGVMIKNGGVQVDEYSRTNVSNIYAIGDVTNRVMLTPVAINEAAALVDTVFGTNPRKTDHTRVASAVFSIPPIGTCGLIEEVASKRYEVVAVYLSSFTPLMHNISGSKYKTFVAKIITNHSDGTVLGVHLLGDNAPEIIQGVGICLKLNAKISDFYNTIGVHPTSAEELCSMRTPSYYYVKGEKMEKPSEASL

Trypanosoma cruzi [2] = assay: Inhibitory activity against Trypanosoma cruzi trypomastigotes at concentration 12.5 uM; format: functional

Structure (SMILES) | IC50 (Trypanosoma cruzi [1]) | IC50 (Trypanothione reductase) | inhibition at 12.5 µM (Trypanosoma cruzi [2])
NCCCCC(N)C(=O)NCC1CCC(CNCCCN2CCN(CCCNCC3CCC(CNC(=O)C(N)CCCCN)CC3)CC2)CC1 (centres undefined) | 5 µM | Not Active | –
NCCCCC(N)C(=O)NCC1CCC(CNCCCN2CCN(CCCNCC3CCCCC3)CC2)CC1 (centres undefined) | 5 µM | Not Active | –
NCCCN1CCN(CCCNCC2CCCCC2)CC1 | 5 µM | Not Active | –
NCCCN1CCN(CCCN2C(=O)c3ccccc3C2=O)CC1 | 5 µM | Not Active | –
C1CCC(CNCCCN2CCN(CCCNCC3CCCCC3)CC2)CC1 | 5 µM | Not Active | 90%
CC(C)(C)OC(=O)NCCCCC(NC(=O)OC(C)(C)C)C(=O)NCC1CCC(CNCCCN2CCN(CCCNCC3CCC(CNC(=O)C(CCCCNC(=O)OC(C)(C)C)NC(=O)OC(C)(C)C)CC3)CC2)CC1 (centres undefined) | 5 µM | Not Active | –
O=C1c2ccccc2C(=O)N1CCCN1CCN(CCCNCC2CCCCC2)CC1 | 5 µM | Not Active | –
NCCCN1CCN(CCCN)CC1 | 5 µM | Not Active | –
CC(C)(C)OC(=O)NCCCCC(NC(=O)OC(C)(C)C)C(=O)NCC1CCC(CNCCCN2CCN(CCCNCC3CCCCC3)CC2)CC1 (centres undefined) | 5 µM | Not Active | –
